Target: Dipeptidyl peptidase 4 (Homo sapiens, UniProt P27487)
Assay: Inhibitory activity against hydrolysis of Gly-Pro-pNa by CD26 (Dipeptidyl peptidase IV) purified from CEM H01 cells
Type: cell-free, CCRF-CEM

Chain of Dipeptidyl peptidase 4 (P27487 whole entry): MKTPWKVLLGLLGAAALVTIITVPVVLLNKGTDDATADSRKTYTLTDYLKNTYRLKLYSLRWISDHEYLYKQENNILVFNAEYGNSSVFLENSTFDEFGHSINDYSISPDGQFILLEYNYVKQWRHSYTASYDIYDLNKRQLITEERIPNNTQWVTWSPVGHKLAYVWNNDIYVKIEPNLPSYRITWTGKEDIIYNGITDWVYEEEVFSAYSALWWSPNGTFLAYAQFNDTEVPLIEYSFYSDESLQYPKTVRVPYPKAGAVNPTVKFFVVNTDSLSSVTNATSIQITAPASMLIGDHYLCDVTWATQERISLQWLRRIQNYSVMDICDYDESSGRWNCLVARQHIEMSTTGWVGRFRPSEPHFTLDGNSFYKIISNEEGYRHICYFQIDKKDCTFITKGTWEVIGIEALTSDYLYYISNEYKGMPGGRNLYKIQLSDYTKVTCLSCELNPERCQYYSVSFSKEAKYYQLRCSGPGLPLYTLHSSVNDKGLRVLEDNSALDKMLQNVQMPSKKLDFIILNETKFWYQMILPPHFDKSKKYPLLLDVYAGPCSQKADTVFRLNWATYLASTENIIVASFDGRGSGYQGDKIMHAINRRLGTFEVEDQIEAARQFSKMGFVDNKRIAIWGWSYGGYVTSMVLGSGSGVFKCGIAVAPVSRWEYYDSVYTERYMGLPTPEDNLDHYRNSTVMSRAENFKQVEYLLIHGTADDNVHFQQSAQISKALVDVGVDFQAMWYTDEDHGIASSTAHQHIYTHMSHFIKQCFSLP

IC50: 30 nM
SMILES: CCCCCCCC[S+](CCCCCCCC)Cc1ccc2cc1C(=O)NCC(=O)NCC(=O)NCCCC[C@H](N)C(=O)N1CCC[C@H]1C(=O)N2

Source: ChEMBL document CHEMBL1131574, “Specific and irreversible cyclopeptide inhibitors of dipeptidyl peptidase IV activity of the T-cell activation antigen CD26” (J Med Chem, 1998)
